Measured values published in patent publication US5223421A, “Identification of methionine Nα-acetyltransferase” (The General Hospital Corporation, priority 1990, dated 1993).
“And” between values parts separate entries of the source, which are not always exact repeats. Equal values may be shown once. Read-outs that look alike come from different tables or passages of the source.

Legend:
[1] = molecular target: T1, yeast methionine acetyltransferase (M-N^α AT) (Saccharomyces cerevisiae, UniProt Q06504); experiment: Relative activity of yeast methionine acetyltransferase for N^α -acetylation of synthetic peptides (PAI analogues); type: biochemical; design: tested at 50 µM; conditions: Table 5; mean ± SD (N=3-5); normalized to yeast proteinase A inhibitor 3
T1 construct: a crude yeast homogenate from the aaa1 mutant strain; endogenous in cells; host or cells: Saccharomyces cerevisiae strain T3A-a (aaa1), crude lysate
T1 sequence (Q06504 1-195): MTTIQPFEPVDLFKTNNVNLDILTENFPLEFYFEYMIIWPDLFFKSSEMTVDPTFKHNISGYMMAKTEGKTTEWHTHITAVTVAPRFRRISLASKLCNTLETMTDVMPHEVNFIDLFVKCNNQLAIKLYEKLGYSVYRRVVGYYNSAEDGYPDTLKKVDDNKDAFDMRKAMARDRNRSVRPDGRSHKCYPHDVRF
T1 sequence (Q12387 2-796 partner limits assumed): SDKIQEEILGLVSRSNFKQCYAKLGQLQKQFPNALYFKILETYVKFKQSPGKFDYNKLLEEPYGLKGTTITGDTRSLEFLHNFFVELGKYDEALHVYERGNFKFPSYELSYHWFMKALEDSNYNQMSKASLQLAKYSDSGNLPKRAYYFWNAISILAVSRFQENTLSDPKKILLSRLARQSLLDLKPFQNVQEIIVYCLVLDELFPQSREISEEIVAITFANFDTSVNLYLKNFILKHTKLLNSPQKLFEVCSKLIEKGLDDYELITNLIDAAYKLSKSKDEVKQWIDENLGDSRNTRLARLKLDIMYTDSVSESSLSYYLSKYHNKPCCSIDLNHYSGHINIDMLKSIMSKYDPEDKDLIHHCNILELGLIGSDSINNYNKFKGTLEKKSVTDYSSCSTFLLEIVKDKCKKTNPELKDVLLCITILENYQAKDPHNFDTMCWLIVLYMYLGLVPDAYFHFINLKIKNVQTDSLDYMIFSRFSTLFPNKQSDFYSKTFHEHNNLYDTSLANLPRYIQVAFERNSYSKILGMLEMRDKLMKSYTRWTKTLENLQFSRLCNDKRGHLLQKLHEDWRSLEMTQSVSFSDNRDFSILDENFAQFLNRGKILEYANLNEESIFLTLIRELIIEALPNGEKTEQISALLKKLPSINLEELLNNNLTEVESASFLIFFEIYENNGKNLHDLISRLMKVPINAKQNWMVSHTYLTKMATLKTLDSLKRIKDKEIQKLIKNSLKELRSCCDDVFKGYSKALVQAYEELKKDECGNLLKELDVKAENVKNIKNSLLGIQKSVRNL
Method: (§1) N^α -acetyltransferase activity was determined as previously described [Lee et al., J. Biol. Chem. 263:14948-14955 (1988)]. Aliquots of the lysate or chromatographic fractions were added to 1.5 ml Eppendorf tubes containing a reaction mixture of 50 mM HEPES, pH 7.4, 150 mM KCl, 1 mM DTT, 25 μM [^3 H] acetyl coenzyme A (0.5 μCi) and 50 μM synthetic peptide with an adjusted final volume of 100 μl. The assay mixture was incubated at 30° C. for 30 min. The reaction was stopped by adding 17 μl of 0.5M acetic acid and chilled in an ice bath. The reaction samples were filtered through SP membrane discs (Cuno) (previously pre-swollen in 0.5M acetic acid), and then washed three times with 1 ml of 0.5M acetic acid on a Millipore 1225 sampling manifold. The partially dried membranes were placed in scintillation cocktail and counted with a Beckman LS 3801 scintillation counter. One unit of activity was defined as the amount of enzyme able to transfer 1 pmol of [^3 H] acetyl group from [^3 H] acetyl coenzyme A to synthetic peptide per min under standard enzyme assay conditions defined above.
Proteinase A inhibitor 3 (PAI) (Tsunasawa et al., Methods Enzymol. 106:165-170 (1984); Wold, F., Trends Biochem Sci. 9:256-267 (1984); Driessen et al., CRC Crit. Rev. Biochem 18:281-325 (1985); Mullen et al., EMBO J. 8:2067-2075 (1989); Lee et al., J. Bacteriol. 171:5795-5802 (1989); Hershko et al., Proc. Natl. Acad. Sci. USA 81:7021-7025 (1984); Bachmair et al., Science 234:179-186 (1986); Arfin et al., Biochemistry 27:7979-7984 (1988); Persson et al., Eur. J. Biochem. 152:523-527 (1985); Huang al., Biochemistry 26:8242-8246 (1987); Lee et al., J. Biol. Chem. 263:14948-14955 (1988); Kamitani et al., J. Biol. Chem. 264:13188-13193 (1989)) is the only known yeast protein which is acetylated at its NH2 -terminal methionine residue (Biedermann et al., Carlsberg Res. Commun. 45:225-235 (1980)). […] The numbers in parentheses refer to the residue numbers, and the letters in parentheses refer to the amino acid sequence Abbreviations are as in FIG. 1. Data are reported as mean activity ±SD (N=3-5) and are normalized to the activity of the homogenate towards yeast proteinase A inhibitor 3. The sequence of this protein is:
Thus, by using PAI, its analogues and other peptides, the structural features of M-N^α AT substrates were studied. […] Only three of nineteen analogues were acetylated, although the efficiency of their acetylation varied from 9-55% (Asp>Glu>Gln). Although it was shown previously that iso-cytochrome c variant proteins (Met-Ile-Arg - - -, Met-Ile-Lys - - -, Met-Met-Asn - - -) can be N^α -acetylated in vivo (Tsunasawa et al., J. Biol. Chem. 260:5382-5391 (1985)), synthetic peptides mimicking the NH2 -terminal 24 amino acid residues of these iso-cytochrome c variants were not acetylated by the yeast M-N^αAT.

yeast N^α AT = molecular target: T2, yeast N^α AT (Saccharomyces cerevisiae, UniProt P07347+P12945); experiment: Effect of ions and reagents on yeast N^α AT (comparison in the discussion); type: biochemical
T2 sequence (P12945 2-854 limits assumed): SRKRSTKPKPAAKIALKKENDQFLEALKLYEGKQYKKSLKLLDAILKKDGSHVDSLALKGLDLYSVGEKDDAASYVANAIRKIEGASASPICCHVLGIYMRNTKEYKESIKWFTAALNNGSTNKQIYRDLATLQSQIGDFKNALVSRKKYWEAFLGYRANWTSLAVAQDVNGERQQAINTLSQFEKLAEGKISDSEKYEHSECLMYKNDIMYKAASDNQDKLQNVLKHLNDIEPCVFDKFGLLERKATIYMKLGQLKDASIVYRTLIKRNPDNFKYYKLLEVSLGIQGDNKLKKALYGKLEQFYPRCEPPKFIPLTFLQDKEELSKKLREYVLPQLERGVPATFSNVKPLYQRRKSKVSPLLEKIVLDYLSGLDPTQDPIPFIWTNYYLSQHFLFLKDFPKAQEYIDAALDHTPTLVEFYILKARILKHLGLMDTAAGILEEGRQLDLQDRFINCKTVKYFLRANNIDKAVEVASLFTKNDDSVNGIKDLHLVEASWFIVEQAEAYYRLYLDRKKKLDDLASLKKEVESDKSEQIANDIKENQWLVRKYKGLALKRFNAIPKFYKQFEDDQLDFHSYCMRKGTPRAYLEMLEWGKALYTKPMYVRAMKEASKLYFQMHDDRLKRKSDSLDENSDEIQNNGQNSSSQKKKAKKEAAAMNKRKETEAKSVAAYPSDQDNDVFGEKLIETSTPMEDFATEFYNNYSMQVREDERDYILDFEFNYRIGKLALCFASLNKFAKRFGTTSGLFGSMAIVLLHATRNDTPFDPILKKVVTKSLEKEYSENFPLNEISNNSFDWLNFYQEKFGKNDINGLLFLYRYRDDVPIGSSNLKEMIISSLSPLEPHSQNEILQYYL
T2 sequence (P07347 1-238): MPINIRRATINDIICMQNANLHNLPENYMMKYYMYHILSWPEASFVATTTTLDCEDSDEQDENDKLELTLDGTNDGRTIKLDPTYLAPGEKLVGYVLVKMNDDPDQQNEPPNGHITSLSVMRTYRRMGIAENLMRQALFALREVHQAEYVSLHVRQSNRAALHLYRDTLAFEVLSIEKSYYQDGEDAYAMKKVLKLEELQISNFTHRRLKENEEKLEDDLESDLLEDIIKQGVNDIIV

[2] = test system: methionine N^α -acetyltransferase from S. cerevisiae; experiment: Effect of protein modification reagents on enzyme activity; type: biochemical, Saccharomyces cerevisiae
Method: as §1
In order to determine the possible catalytic role for different types of amino acid residues in the enzyme, various chemical modifications were carried out (Table 10). Yeast methionine acetyltransferase was incubated with each reagent at 30° C. for 15 min, dialyzed against 50 mM HEPES, pH 7.4, 150 mM, 1 mM DTT at 4° C. for 3 to 4 hr. The enzyme activity was determined under standard assay conditions using PAI (N=3), assayed as described above.

[3] = reagent 1.0 mM, 30° C. 15 min, then dialyzed, substrate PAI (N=3)
[4] = reagent 10.0 mM, 30° C. 15 min, then dialyzed, substrate PAI (N=3)

Compound: [Met2 ]PROTEINASE A INHIBITOR 3 (1-24) (Yeast): synthetic PAI analogue with substitution at penultimate position (Met) (MMTDQQKVSEIFQSSKEKLQGDAK; UniProt P01094 1-24, looked up, variant N2M)
- Activity (%) [1]: 0%

Compound: [Gln2 ]PROTEINASE A INHIBITOR 3 (1-24) (Yeast): synthetic PAI analogue with substitution at penultimate position (Gln) (MQTDQQKVSEIFQSSKEKLQGDAK; UniProt P01094 1-24, looked up, variant N2Q)
- Activity (%) [1]: 9 ± 3%

Compound: [Gly2 ]PROTEINASE A INHIBITOR 3 (1-24) (Yeast): synthetic PAI analogue with substitution at penultimate position (Gly) (MGTDQQKVSEIFQSSKEKLQGDAK; UniProt P01094 1-24, looked up, variant N2G)
- Activity (%) [1]: 0%

Compound: O=C(O)CI [IAA, iodoacetic acid]
- effect of reagent on N^α AT activity (yeast N^α AT): inability
- Enzyme Activity (%) [2]: 102% and 75%

Compound: NC(=O)CI [IAM, iodoacetamide]
- effect of reagent on N^α AT activity (yeast N^α AT): inability
- effect of reagent on M-N^α AT activity ([2]; 1 mM): without effect
- effect of reagent on M-N^α AT activity ([2]; 10 mM): partial inactivation
- effect of reagent on M-N^α AT activity ([2]; concentration not given): inability
- Enzyme Activity (%) [2, 3]: 100%
- Enzyme Activity (%) [2, 4]: 86%

Compound: [Pro2 ]PROTEINASE A INHIBITOR 3 (1-24) (Yeast): synthetic PAI analogue with substitution at penultimate position (Pro) (MPTDQQKVSEIFQSSKEKLQGDAK; UniProt P01094 1-24, looked up, variant N2P)
- Activity (%) [1]: 0%

Compound: O=C(O)c1cc[c]([Hg][Cl])cc1 [pCMB, p-chloromercuribenzoate]
- effect of reagent on N^α AT activity (yeast N^α AT): inability
- effect of reagent on M-N^α AT activity ([2]; 1 mM): without effect
- effect of reagent on M-N^α AT activity ([2]; 10 mM): partial inactivation
- effect of reagent on M-N^α AT activity ([2]; concentration not given): inability
- Enzyme Activity (%) [2, 3]: 94%
- Enzyme Activity (%) [2, 4]: 25%

Compound: [Val2 ]PROTEINASE A INHIBITOR 3 (1-24) (Yeast): synthetic PAI analogue with substitution at penultimate position (Val) (MVTDQQKVSEIFQSSKEKLQGDAK; UniProt P01094 1-24, looked up, variant N2V)
- Activity (%) [1]: 0%

Compound: [Phe2 ]PROTEINASE A INHIBITOR 3 (1-24) (Yeast): synthetic PAI analogue with substitution at penultimate position (Phe) (MFTDQQKVSEIFQSSKEKLQGDAK; UniProt P01094 1-24, looked up, variant N2F)
- Activity (%) [1]: 0%

Compound: [Ile2 ]PROTEINASE A INHIBITOR 3 (1-24) (Yeast): synthetic PAI analogue with substitution at penultimate position (Ile) (MITDQQKVSEIFQSSKEKLQGDAK; UniProt P01094 1-24, looked up, variant N2I)
- Activity (%) [1]: 0%

Compound: [Asp2 ]PROTEINASE A INHIBITOR 3 (1-24) (Yeast): synthetic PAI analogue with substitution at penultimate position (Asp) (MDTDQQKVSEIFQSSKEKLQGDAK; UniProt P01094 1-24, looked up, variant N2D)
- Activity (%) [1]: 55 ± 5%

Compound: [Trp2 ]PROTEINASE A INHIBITOR 3 (1-24) (Yeast): synthetic PAI analogue with substitution at penultimate position (Trp) (MWTDQQKVSEIFQSSKEKLQGDAK; UniProt P01094 1-24, looked up, variant N2W)
- Activity (%) [1]: 0%

Compound: [His2 ]PROTEINASE A INHIBITOR 3 (1-24) (Yeast): synthetic PAI analogue with substitution at penultimate position (His) (MHTDQQKVSEIFQSSKEKLQGDAK; UniProt P01094 1-24, looked up, variant N2H)
- Activity (%) [1]: 0%
